Test results from article PMC9011347, “Small-Molecule Inhibitors Targeting Lipolysis in Human Adipocytes” (Journal of the American Chemical Society, 2022).

Legend:
human pancreatic lipase = target: T1, human pancreatic lipase (Homo sapiens, UniProt P16233); assay: Activity of purified pancreatic lipase, radiolabeled triolein; type: biochemical; conditions: NG-497 100 µM
T1 construct: purchased MilliporeSigma SRE0028
Procedure: (§1) Fig. S3: Investigation of off-target effects of NG-497 on structurally and functionally related lipid hydrolases. (a) PNPLA1-dependent formation of acylceramides was monitored in a cell-based assay in HEK293T cells. Experiments were performed in the presence or absence of NG-497 (40 µM) and the non-selective lipase inhibitor Orlistat (40 µM). Orlistat, but not NG-497, inhibited PNPLA1/CGI-58-dependent ω-O-acylceramide formation. (b-h) Enzymes were overexpressed in Expi293 cells and cell lysates were used as source of enzymatic activity. […] Experiments were performed in the presence or absence of NG-497 (100 µM) and the formation of reaction products was monitored. […]
(§2) Data were calculated relative to the basal activity detected in LacZ-transfected controls. […]
(§3) LPL activity was inhibited using an anti-LPL antibody. All data are presented as mean ± S.D. Statistical significance was determined via ANOVA followed by Bonferroni post hoc test ( ***, p < 0.001). […]
(§4) Released free fatty acids were quantified via NEFA C kit (Fujifilm Wako Chemicals, Neuss, Germany) and release of p-nitrophenol was measured at 405 nm. […] Cellular ω-O-acylceramide formation was monitored using [1-14C]linoleic acid as tracer. […] The activity of purified human pancreatic lipase (MilliporeSigma #SRE0028) was determined as previously described7 in the presence or absence of NG-497 (100µM) or Orlistat (20 µM). […]

[1] = system: primary human omental adipocytes; assay: Lipolysis in human omental adipocytes; type: cell-based; conditions: NG-497 40 µM
Procedure: Fig. S5: Effect of NG-497 on lipolysis in human omental adipocytes. Omental preadipocytes were obtained from Zen-Bio and differentiated into adipocytes in 96-well trays according to the manufacturer's instructions (OP-F-SL, ZenBio). Cells were then labeled with [9,10-3H] oleic acid (1µCi/well) in full medium for 12 h, washed, and preincubated for 1 h with NG-497 (40 µM) or DMSO (carrier) as a control. Subsequently, the medium was replaced with DMEM containing 2% FA-free BSA and basal as well as Forskolin-stimulated release of radioactivity was monitored in the presence or absence of NG-497. After a 4 h incubation period, cells were lysed in NaOH/SDS (0.3 M/0.1%) and cell-associated radioactivity was determined by liquid scintillation.
Cell-associated radioactivity at time-point 0 (pulse) was calculated as sum of the radioactivity detected in medium and cells after the 4 h chase. The release of fatty acids is shown as % of cell-associated radioactivity.
In the presence of Forskolin, cells lost ~ 20% of the
(b) Time course of FA release during the 4 h chase period. NG-497 reduced basal lipolysis by ~50% and extinguished Forskolin-stimulated lipolysis. Data are presented as mean ± S.D (n = 4). Statistical significance was determined via ANOVA followed by Bonferroni post hoc test (***, p < 0.001).
(1 picture or pasted object on this page, not shown here)

[2] = system: lipoprotein lipase (LPL) and hepatic lipase (HL); assay: Heparin-releasable TAG hydrolase activity in post-heparin plasma; type: biochemical; conditions: NG-497 100 µM, radiolabeled triolein
Procedure: as §1, §2, §3, §4

T1 sequence (P16233 17-465): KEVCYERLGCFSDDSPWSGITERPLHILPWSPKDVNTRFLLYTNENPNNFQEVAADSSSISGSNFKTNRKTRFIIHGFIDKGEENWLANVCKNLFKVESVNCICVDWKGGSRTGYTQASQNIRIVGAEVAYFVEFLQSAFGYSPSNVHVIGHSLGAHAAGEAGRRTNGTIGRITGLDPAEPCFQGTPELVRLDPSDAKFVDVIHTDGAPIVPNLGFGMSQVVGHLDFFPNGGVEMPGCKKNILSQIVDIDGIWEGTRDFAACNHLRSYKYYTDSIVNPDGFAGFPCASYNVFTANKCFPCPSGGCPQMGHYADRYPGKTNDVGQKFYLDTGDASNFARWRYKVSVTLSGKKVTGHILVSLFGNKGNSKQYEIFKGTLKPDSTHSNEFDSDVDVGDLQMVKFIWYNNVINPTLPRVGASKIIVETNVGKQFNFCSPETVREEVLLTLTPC

With `CCOc1ccc(-c2cc(OC)cc(C(=O)OC(C)C)n2)cc1` [NG-497] the “inhibition of pancreatic lipase” value (human pancreatic lipase) was “did not observe inhibition”, the “Forskolin-induced loss of cell-associated radiolabel (~ 20%)” value ([1]; 4 h) was “completely prevented” and the “Forskolin-induced TAG degradation and FA release (Forskolin-stimulated lipolysis)” value ([1]; 4 h chase) was “extinguished”. For the same compound, the “reduction of basal lipolysis” value ([1]; 4 h chase) was ~ 50% and the “inhibition of heparin-releasable TAG hydrolase activity in human serum” value [2] was “did not observe inhibition”.
